{"source": "patent US20200231562A1", "about": "“NOVEL MACROLIDE ANTIBIOTICS” (HELMHOLTZ-ZENTRUM FÜR INFEKTIONSFORSCHUNG GMBH, priority 2014, published 2020)", "type_in_all_cases": "cell-based", "key": {"Bacillus subtilis DSM 10": {"system": "Bacillus subtilis DSM 10", "experiment": "MIC by microbroth dilution", "conditions": "Bacillus subtilis, DSM10, 16 h, 30° C., n.i. = no inhibition up to 67 μg/ml, read-out: MIC", "description": "(§1) Bacterial strains. Bacterial wildtype strains used in susceptibility assays were either part of HZI's strain collection or purchased from the German Collection of Microorgansims and Cell Cultures (Deutsche Sammlung von Mikroorganismen und Zellkulturen, DSMZ).\n(§2) Minimum inhibitory concentration (MIC) was determined by microbroth dilution. In brief, overnight cultures of bacteria (EBS medium) were diluted to OD600 0.01. Disciformycin A (1) or B (2) dissolved in DMSO was added directly to the cultures in 96-well plates (Sarstedt, flat bottom) in duplicate and the compound was tested in serial dilution. […] After 16 h incubation at 900 rpm and 30° C. on a microplate shaker (Titramax, Heidolph) absorbance at 600 nm was measured using a microplate reader (POLARstar Omega, BMG Labtech). MIC values were determined by sigmoidal curve fitting."}, "[1]": {"system": "Chromobacterium violaceum DSM 30191", "experiment": "MIC by microbroth dilution", "conditions": "16 h, 30° C., n.i. = no inhibition up to 67 μg/ml", "description": "as §1, §2"}, "[2]": {"system": "Escherichia coli DSM 1116", "experiment": "MIC by microbroth dilution", "conditions": "16 h, 30° C., n.i. = no inhibition up to 67 μg/ml", "description": "as §1, §2"}, "[3]": {"system": "Micrococcus luteus DSM 20030", "experiment": "MIC by microbroth dilution", "conditions": "Micrococcus luteus, DSM20030, 16 h, 30° C., n.i. = no inhibition up to 67 μg/ml, read-out: MIC", "description": "as §1, §2"}, "[4]": {"system": "Mycobacterium diemhoferi DSM 43524", "experiment": "MIC by microbroth dilution", "conditions": "Mycobacterium, DSM43524, 16 h, 30° C., n.i. = no inhibition up to 67 μg/ml, read-out: MIC", "description": "as §1, §2"}, "[5]": {"system": "Mycobacterium sp. DSM 43270", "experiment": "MIC by microbroth dilution", "conditions": "16 h, 30° C., n.i. = no inhibition up to 67 μg/ml", "description": "as §1, §2"}, "[6]": {"system": "Nocardioides simplex DSM 20130", "experiment": "MIC by microbroth dilution", "conditions": "Pimelobacter simplex, DSM20130, 16 h, 30° C., n.i. = no inhibition up to 67 μg/ml, read-out: MIC", "description": "as §1, §2"}, "[7]": {"system": "Paenibacillus polymyxa DSM 36", "experiment": "MIC by microbroth dilution", "conditions": "Paenibacillus polymyxa, DSM36, 16 h, 30° C., n.i. = no inhibition up to 67 μg/ml, read-out: MIC", "description": "as §1, §2"}, "[8]": {"system": "Pseudomonas aeruginosa DSM 50071", "experiment": "MIC by microbroth dilution", "conditions": "16 h, 30° C., n.i. = no inhibition up to 67 μg/ml", "description": "as §1, §2"}, "[9]": {"system": "Staphylococcus aureus (MRSA) DSM-11822", "experiment": "MIC by microbroth dilution", "conditions": "microbroth dilution, 16 h, 30° C., n.i. = no inhibition up to 67 μg/ml", "description": "as §1, §2"}, "[10]": {"system": "Staphylococcus aureus DSM 346", "experiment": "MIC by microbroth dilution", "conditions": "Staphylococcus aureus, DSM346, 16 h, 30° C., n.i. = no inhibition up to 67 μg/ml, read-out: MIC", "description": "as §1, §2"}, "[11]": {"system": "Staphylococcus aureus Mu50 (MRSA/VRSA) ATCC 700699", "experiment": "MIC by microbroth dilution", "conditions": "16 h, 30° C., n.i. = no inhibition up to 67 μg/ml", "description": "as §1, §2"}, "[12]": {"system": "Staphylococcus aureus N315 (MRSA)", "experiment": "MIC by microbroth dilution", "conditions": "16 h, 30° C., n.i. = no inhibition up to 67 μg/ml", "description": "as §1, §2"}, "[13]": {"system": "Staphylococcus aureus Newman", "experiment": "MIC by microbroth dilution", "conditions": "16 h, 30° C., n.i. = no inhibition up to 67 μg/ml", "description": "as §1, §2"}, "[14]": {"system": "Staphylococcus camosus DSM 20501", "experiment": "MIC by microbroth dilution", "conditions": "30° C., n.i. = no inhibition up to 67 μg/ml", "description": "as §1, §2"}, "[15]": {"system": "Chinese hamster ovary CHO-K1 cells (ACC-110)", "experiment": "Cytotoxicity (MTT) assay, antiproliferative activity", "conditions": "Cricetulus griseus, 120 h, CHO-K1, 5 d incubation", "description": "Half maximal inhibitory concentrations (IC50) in μg/ml of disciformycin A (1) and disciformycin B (2) for inhibiting the proliferative activity of human HCT-116 colon carcinoma cells, mouse fibroblast cells L929, and Chinese hamster ovary CHO-K1 cells were determined. Cells were seeded at 6×10^3 cells per well of 96-well plates (Corning CellBind®) in complete medium (180 μl) and directly treated with disciformycin dissolved in DMSO in serial dilution. The compound was tested in duplicate, as well as the internal solvent control. After 5 d incubation, 5 mg/ml MTT in PBS (20 μL) was added per well and it was further incubated for 2 h at 37° C. The medium was then discarded and cells were washed with PBS (100 μl) before adding 2-propanol/10N HCl (250:1, v/v; 100 μl) in order to dissolve formazan granules. The absorbance at 570 nm was measured using a microplate reader (EL808, Bio-Tek Instruments Inc.). The amount of formazan, i.e. relative absorption, is thereby proportional to the number of actively proliferating cells."}, "[16]": {"system": "S. aureus Newman in PMA-differentiated human THP-1 cell line (macrophages)", "experiment": "Intra-macrophage activity", "from_the_text": "The PMA-differentiated human THP-1 cell line (macrophages) was used as cellular host for infection with S. aureus Newman at an MOI (multiplicity of infection) of 10. […] Intracellular bacteria were recovered and serial dilutions were streaked out on CASO-Agar for cfu counting. The reference drug rifampicin reduced the number of intracellular bacteria by ca. 4 logs (at 8×MIC)."}, "S. auricularis A": {"system": "S. auricularis A", "experiment": "Bouillon dilution assay (MIC90)", "conditions": "Staphylococcus auricularis, tryptic soy broth, 37° C., 16 h", "description": "(§3) Before incubation, 3 was added in decreasing concentrations ([…] to 12.5 μg/ml). After incubation, the OD600 was measured. The experiment was run in triplicate. Ciprofloxacin was used as a positive control."}, "[17]": {"system": "methicillin-resistant S. aureus (MRSA)", "experiment": "Bouillon dilution assay (MIC90)", "conditions": "Staphylococcus aureus, tryptic soy broth, 37° C., 16 h", "description": "as §3"}, "[18]": {"conditions": "Staphylococcus aureus, read-out: MIC"}}, "note": "Like-named read-outs stand apart in the source and are kept apart here."}
{"smiles": "C/C=C(/C)[C@H]1C/C=C(\\C)[C@@H](O[C@H]2O[C@H](CO)[C@@H](O)[C@@H]2O)[C@H](OC(=O)CC(C)C)C(=O)C/C=C(/C)C(=O)O1", "note": "[Compound 1, disciformycin A]", "values": [{"measurement": "MIC", "setting": "Bacillus subtilis DSM 10", "value": 4.2, "unit": "µg/mL"}, {"measurement": "MIC", "setting": "[1]", "value": "n.i."}, {"measurement": "MIC", "setting": "[2]", "value": "n.i."}, {"measurement": "MIC", "setting": "[3]", "value": 67, "unit": "µg/mL"}, {"measurement": "MIC", "setting": "[4]", "value": 33.3, "unit": "µg/mL"}, {"measurement": "MIC", "setting": "[5]", "value": "n.i."}, {"measurement": "MIC", "setting": "[6]", "value": 33.3, "unit": "µg/mL"}, {"measurement": "MIC", "setting": "[7]", "value": 16.6, "unit": "µg/mL"}, {"measurement": "MIC", "setting": "[8]", "value": "n.i."}, {"measurement": "MIC", "setting": "[9]; [18]", "value": 4, "unit": "µg/mL"}, {"measurement": "MIC", "setting": "[9]", "value": 4.0, "unit": "µg/mL"}, {"measurement": "MIC", "setting": "[10]", "value": 16.6, "unit": "µg/mL"}, {"measurement": "MIC", "setting": "[11]", "value": 2.0, "unit": "µg/mL"}, {"measurement": "MIC", "setting": "[11]; [18]", "value": 2, "unit": "µg/mL"}, {"measurement": "MIC", "setting": "[12]", "value": 8.0, "unit": "µg/mL"}, {"measurement": "MIC", "setting": "[12]; Staphylococcus aureus, MRSA, read-out: MIC", "value": 8, "unit": "µg/mL"}, {"measurement": "MIC", "setting": "[13]", "value": 8.0, "unit": "µg/mL"}, {"measurement": "MIC", "setting": "[13]; Staphylococcus aureus, NEWMAN, read-out: MIC", "value": 8, "unit": "µg/mL"}, {"measurement": "MIC", "setting": "[14]; 16 h", "value": 7.8, "unit": "µg/mL"}, {"measurement": "MIC", "setting": "[14]; Staphylococcus, DSM20501, 16 h, read-out: MIC", "value": 7.8, "unit": "µg/mL"}, {"measurement": "IC50", "setting": "[15]", "value": 16.6, "unit": "µg/mL"}, {"measurement": "reduction of the number of intracellular bacteria", "setting": "[16]; 18 h, MOI 10, cfu counting, tested at 1×, 4× and 8×MIC", "value": 3, "unit": "logs"}, {"measurement": "cytotoxicity towards THP-1 host cells", "setting": "[16]; 18 h treatment of infected macrophages", "value": "without causing any apparent cytotoxicity"}]}
{"smiles": "C/C=C(/C)[C@H]1C/C=C(\\C)[C@@H](O[C@H]2O[C@H](CO)[C@@H](O)[C@@H]2O)[C@H](OC(=O)CC(C)C)C(=O)C[C@@H](O)[C@H](C)C(=O)O1", "note": "[Compound 3, gulmirecin A]", "values": [{"measurement": "MIC90", "setting": "S. auricularis A", "value": 22.5, "unit": "µM"}, {"measurement": "MIC90", "setting": "[17]", "value": 23.1, "unit": "µM"}]}
